What was measured:
Type in all cases: cell-based
[1] = tested on: Staphylococcus aureus, Pseudomonas aeruginosa, Escherichia coli; assay: Preservative efficacy test (Pharmacopée Française), bactericidal effect
Method: (§1) The inventors thus tested the bactericidal and/or fungicidal activity of α-alkylglucoside and α-alkylglucoside ester type compounds to determine the conditions, in particular the concentrations, under which said compounds have to be used for the desired activities to be obtained. The results of these tests were analysed in accordance with the “Pharmacopée Françcaise” which describes a methodology for monitoring the efficacy of antimicrobial preservation agents in pharmaceutical preparations and establishes minimum efficacy criteria as a function of the administration routes of a medicine. Thus specific criteria are fixed for topical patent medicines which can be considered to be close to cosmetic products in their conception. The recommended and significant criteria for bactericidal and/or fungicidal activity of a product are:
for a bactericidal effect (Staphylococcus aureus, Pseudomonas aeruginosa, Escherichia coli):
reduction of 3 logarithmic units in 14 days with respect to the initial population;
no increase in microbial growth after 14 days and up to the 28th day, when the test is stopped;
(§2) In order to facilitate visualisation of the bactericidal or fungicidal effect of the tested compounds, the results obtained were transcribed into the graphical forms of FIG. 5 which show the reduction in the number of germs in logarithmic units, over time (1 day, 7 days, 14 days, 21 days, 28 days).

[2] = tested on: Aspergillus niger; assay: Preservative efficacy test (Pharmacopée Française), fungicidal effect on Aspergillus niger; settings: concentration of 5%
Method: as §1
(§3) for a fungicidal effect (yeasts and moulds) (Candida albicans, Aspergillus niger):
(§4) reduction of one logarithmic unit in 14 days with respect to the initial population;
(§5) no increase in microbial growth after 14 days and up to the 28th day, when the test is stopped.
as §2

[3] = tested on: Candida albicans, Aspergillus niger; assay: Preservative efficacy test (Pharmacopée Française), fungicidal effect (yeasts and moulds); settings: concentrations of 1% to 3%
Method: as §1, §3, §4, §5, §2

For CCCCO[C@H]1O[C@H](CO)[C@@H](O)[C@H](O)[C@H]1O [α-BG, α-butylglucoside], the “compliance with bactericidal standards of the Pharmacopée Française” value ([1]; concentrations above 1%) was “corresponds to the bactericidal standards”, the “logarithmic reduction (bactericidal effect)” value ([1]; concentrations above 1% (1% to 5%), after 14 days) was “more than 3 logarithmic units” and the “increase in the number of strains after 14 days” value ([1]; concentrations above 1%, after 14 days) was “no subsequent increase in the number of strains”. The “reduction in the number of germs” value ([1]; concentrations of less than 0.8%) was “small reduction in the number of germs”, the “fungicidal activity on Aspergillus niger at 5% versus lower concentrations” value [2] was “less active than at lower concentrations” and the “compliance with fungicidal standards” value [3] was “satisfy the fungicidal standards”.

Reference: patent US6475991B2, “Use of α-alkylglucosides and α-alkylglucoside esters as anti-microbial an agents” (Ulice, priority 1996, dated 2002)
